Article PMC5059921, “Chalepin: isolated from Ruta angustifolia L. Pers induces mitochondrial mediated apoptosis in lung carcinoma cells” (BMC Complementary and Alternative Medicine, 2016)
Read-outs that look alike come from different tables or passages of the source.

Key:
A549 cell line = assay: SRB in vitro cytotoxicity screening; format: cell-based, human
Experimental: The human cell lines A549 (lung cancer) and Ca Ski (cervical cancer) were cultured as monolayer in RPMI 1640 growth media whereas HCT-116 (colon cancer) and MRC5 (human normal lung fibroblasts) was cultured in McCoy’s 5A and EMEM medium, respectively. All cells were purchased from the […] (ATCC, USA). All the media were supplemented with 10 % v/v foetal bovine serum (FBS), 100 μg/mL penicillin/streptomycin, and 50 μg/mL amphotericin B. The cells were cultured in a 5 % CO2 incubator at 37 °C.
The monolayer cell culture was detached using accutase and the cell count was adjusted to 2.5 x10^5 -3.0 x10^5 cells/mL using medium containing feotal bovine serum. The cells were then plated into 96 wells with a cell density of 5000-7000 cells/well and then incubated for 24 h to allow adherence of cells to the base of well of the plates. The media was then removed and 200 μl of fresh media containing different concentration of various extracts or isolated compounds were added. Cisplatin was used as the positive control. The plates were incubated for 24, 48 and 72 h at 37 °C and 5 % CO2. The cytotoxicity of the extracts and isolated compounds were screened using the […] (SRB) assay. This assay was first described by Houghton in 2007 [8]. The incubation was halted by gentle addition of 50 μl ice cold 4 % trichloroacetic acid (TCA) to each well and the plates were incubated at 4 °C for 1 h. Then, the supernatant was discarded and the plates were washed with distilled water for 5 times and then air dried. SRB dye, 50 μl, (0.4 % w/v) was added into each well and the treated cells and control were incubated at room temperature for 30 min. The unbound dye was removed by rapid washing four times with 1 % acetic acid. The plates were then air dried and 100 μl of tris base (10 mM unbuffered, pH 10.5) was added and the plates were shaken at 500 rpm for 5 min to solublize the bound SRB stain. The plates were then read with an ELISA reader (Synergy H1 Hybrid) at an absorbance of 492 nm.

A549 cells [1] = assay: DNA fragmentation by APO-BrdU TUNEL assay; format: cell-based, human
Experimental: DNA strand breaks in apoptotic cells caused by the activation of endonucleases, were detected by APO-BrdU TUNEL assay kit. After incubation with various concentrations of chalepin at 48 and 72 h, cells were harvested and washed with PBS. Next, the cells were fixed with 1 % (w/v) paraformaldehyde for 15 mins, then washed with PBS, and fixed with 70 % (v/v) ethanol overnight. Ethanol was removed by centrifugation and DNA labeling steps were performed according to the manual provided in the kit. Samples were analyzed by flow cytometer and a minimum of 10,000 events were acquired for each replicate.

A549 cells [2] = assay: Mitochondrial membrane potential assay (JC-1, flow cytometry); format: cell-based; conditions: Homo sapiens, A549, 48 h, read-out: JC-1 dot plot: Viable
Experimental: A lipophilic and cell-permeable fluorochrome JC-1 (5,5’,6,6’-tetrachloro-1,1’,3,3’-tetraethyl benzimidazolyl carbocyanine iodide), was used to measure mitochondrial membrane potential (Δψm) according to the manufacturer’s instructions (BD MitoScreen Kit). The cells (1×10^6) were seeded in tissue culture plates and were treated with 18, 27, 36, and 45 μg/ml of chalepin for 48 h incubation. The cells were then harvested, washed with PBS twice and incubated with JC-1 dye for 15 mins at 37°C. At the end of the incubation, the cells were washed and resuspended with 500 μl of 1x assay buffer (provided in the kit). The intracellular fluorescence signals of JC-1 in the cells were then measured with Accuri C6 flow cytometer. Approximately 10,000 events were recorded per analysis. In healthy cells, JC-1 accumulates as aggregates in the mitochondria and emits red fluorescence. In cells, which have undergone apoptosis, JC-1 remains in monomeric form in the cytoplasm and emits green fluorescence. The red and green fluorescence were detected at FL-2 and FL-1 channels respectively in the flow cytometer. Ratio of mean fluorescence intensity between the FL1 and FL2 channels were calculated and this is used to determine the changes in the mitochondrial membrane potential. The results were analysed by calculating the ratio of JC-1 dimers to JC-1 monomers. A […] ratio indicated a […] membrane depolarization of mitochondria in cells (BD MitoScreen Flow Cytometry Mitochondrial Membrane Potential Detection Kit Instruction Manual). Cells that was untreated in 0.5 % DMSO acted as the control.
JC-1 (5,5’,6,6’-tetrachloro-1,1’,3,3’-tetraethyl benzimidazolyl carbocyanine iodide) mitochondrial membrane potential assay kit by Abcam was used to stain the A549 cells to view the mitochondrial membrane potential (Δψm) changes in cells. Prior to the JC-1 staining initiation, 1x dilution buffer were prepared by adding 10 mL 10× dilution buffer to 90 mL deionized water. The solution was mixed gently and throughly. JC-1 stock (1mM) was diluted to 20 μM working JC-1 solution. This was done by adding 200 μl of JC-1 stock solution into 10 mL of 1× dilution buffer. The cells (1×10^6) were seeded in tissue culture plates and were treated with 18, 27, 36, and 45 μg/ml of chalepin for 48 and 72 h incubation. The cells were then harvested, washed with PBS twice and incubated with JC-1 dye for 20 mins at 37 °C. At the end of the incubation, the cells were washed and resuspended with 1000 μl of 1× dilution buffer. The cells were viewed using a fluorescence microscope at an excitation wavelength of Ex475 ± 20nm and emission wavelength of Em530 ± 15 nm and 590 ± 17.5 nm. The images were captured and recorded.

caspase 9 in A549 cells = assay: Caspase-9 activity (CaspILLUME, flow cytometry); format: cell-based, human; conditions: 45 μg/ml
Experimental: (§1) Caspase activity assays were performed according to the instructions in the manual (CaspILLUME, Genetex). Cells were seeded at a density of 1×10^6 cells per culture dish. After being subjected to treatment for 48 and 72 h, the cells were detached with accutase, washed, and resuspended in PBS. Next, 300 μL of each sample was aliquoted into centrifuge tubes, after which 1 μL of fluorescent substrate (FITC-DEVD-FMK for caspase 3 and FITC-LEHD-FMK for caspase 9 activity) was added to each tube and incubated for 1 h at 37°C incubator. At the end of the incubation period, the cells were centrifuged at 3000 rpm for 5 min and the supernatant was removed. After that, the cells were resuspended in 0.5 mL wash buffer (provided in the kit) and centrifuged at 3000 rpm for 5 min. This step was repeated before performing the analysis with flow cytometer (Accuri C6) and a minimum of 10,000 events were acquired for each replicate.

caspase 3 in A549 cells = assay: Caspase-3 activity (CaspILLUME, flow cytometry); format: cell-based, human; conditions: for active caspase 3, V1-R (apoptotic population): 45 ug/ml; for fold increase of caspase 3 activity vs untreated control: 45 μg/ml
Experimental: as §1

SMILES: C=CC(C)(C)c1cc2cc3c(cc2oc1=O)O[C@H](C(C)(C)O)C3 [Chalepin, chalepin]
- IC50 (A549 cell line; Homo sapiens, A549, 48 h, isolated compounds, 48 h, value in brackets, read-out: IC50 in μg/ml (μM) (A549) 48 h (converted)): 90.1 µM
- IC50 (A549 cell line; Homo sapiens, A549, 48 h, isolated compounds, 48 h, read-out: IC50 in μg/ml (μM) (A549) 48 h (converted)): 28.3 ± 1.06 µg/mL
- IC50 (A549 cell line; Homo sapiens, A549, 72 h, isolated compounds, 72 h, read-out: IC50 in μg/ml (μM) (A549) 72 h (converted)): 8.69 ± 2.43 µg/mL
- IC50 (A549 cell line; Homo sapiens, A549, 72 h, read-out: IC50 in μg/ml (μM) (A549) 72 h, isolated compounds, 72 h, value in brackets): 27.6 µM
- IC50 (A549 cell line; isolated compounds, 72 h, value in brackets, read-out: IC50 in μg/ml (μM) (A549) 72 h (converted)): 28 µM
- DNA fragmentation, R3 (TUNEL positive cells) (A549 cells [1]; A549, 48 h, 45 μg/ml): 38.5 ± 0.70%
- DNA fragmentation, R3 (TUNEL positive cells) (A549 cells [1]; A549, 72 h, 36 μg/ml): 73.50 ± 0.20%
- DNA fragmentation, R3 (TUNEL positive cells) (A549 cells [1]; A549, 72 h, 45 μg/ml): 66.50 ± 0.29%
- viability at 18 µg/mL (A549 cells [2]): 78.3%
- viability at 27 µg/mL (A549 cells [2]): 68.2%
- viability at 36 µg/mL (A549 cells [2]): 54.2%
- viability at 45 µg/mL (A549 cells [2]): 52.9%
- active caspase 9, V1-R (apoptotic population) (caspase 9 in A549 cells; A549, 48 h): 22.57 ± 0.21%
- active caspase 9, V1-R (apoptotic population) (caspase 9 in A549 cells; A549, 72 h): 33.5 ± 0.35%
- fold increase in activation of caspase 9 vs untreated control (caspase 9 in A549 cells; A549, 72 h): 8.44 fold
- active caspase 3, V1-R (apoptotic population) (caspase 3 in A549 cells; A549, 48 h): 26.40 ± 0.79%
- fold increase of caspase 3 activity vs untreated control (caspase 3 in A549 cells; A549, 48 h): 9.32 fold
- active caspase 3, V1-R (apoptotic population) (caspase 3 in A549 cells; A549, 72 h): 49.07 ± 0.63%
- fold increase of caspase 3 activity vs untreated control (caspase 3 in A549 cells; A549, 72 h): 8.71 fold
